The supplement of paper PMC10627819

Legend:
S. aureus DSM 20231 = assay: fitness (endpoint OD595 vs no drug) (fraction); higher = more growth
How it was run: (§1)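 Fitness was measured as bacterial growth in 384-well plates inoculated at OD595 0.01 (30 µl, or 55 µl for S. pneumoniae). Media were TSB, LB Lennox or CY, at 37 °C. OD595 was read every 30 min for 14 h and background-subtracted against the first reading. Fitness is OD595 at the transition into stationary phase divided by the robust mean of no-drug control wells, capped at 1.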

S. pneumoniae D39V = assay: as above
How it was run: as §1
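Also: OD595 on entry to stationary phase over no-drug wells; at most 1.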

CN(C)[C@@H]1C(O)=C(C(N)=O)C(=O)[C@@]2(O)C(O)=C3C(=O)c4c(O)ccc(Cl)c4[C@@](C)(O)[C@H]3C[C@@H]12 [Chlortetracycline] + CCCCCCCCCC(=O)N[C@@H]1[C@H]([C@@H]([C@H](O[C@H]1OC2=C3C=C4C=C2OC5=C(C=C(C=C5)[C@H]([C@H]6C(=O)N[C@@H](C7=C(C(=CC(=C7)O)OC8[C@H]([C@H]([C@@H]([C@H](O8)CO)O)O)O)C9=C(C=CC(=C9)[C@H](C(=O)N6)NC(=O)[C@@H]4NC(=O)[C@@H]1C2=CC(=CC(=C2)OC2=C(C=CC(=C2)[C@H](C(=O)N[C@H](CC2=CC(=C(O3)C=C2)Cl)C(=O)N1)N)O)O)O)C(=O)O)O[C@H]1[C@@H]([C@H]([C@@H]([C@H](O1)CO)O)O)NC(=O)C)Cl)CO)O)O [Teicoplanin]
S. aureus DSM 20231, first compound 0.006 µg/mL, one replicate, main component drawn
Conditions | fitness
partner 0.1562 µg/mL | 0.707
partner 0.3125 µg/mL | 0.905
partner 0.625 µg/mL | 0.997

fitness, S. aureus DSM 20231, main component drawn
Conditions | partner 0.1562 µg/mL | partner 0.3125 µg/mL | partner 0.625 µg/mL
first compound 0.012 µg/mL | 0.656 | – | 0.756
first compound 0.048 µg/mL | 0.0926 | 0.0866 | 0.0794

CC(=O)Oc1ccccc1C(=O)O [Acetylsalicylic acid] + Cc1cc(NS(=O)(=O)c2ccc(N)cc2)no1 [Sulfamethoxazol]
fitness
Conditions | first compound 250 µg/mL | first compound 500 µg/mL | first compound 1000 µg/mL
S. aureus DSM 20231, partner 1 µg/mL | 0.862 | 0.683 | 0.53
S. aureus DSM 20231, partner 2 µg/mL | 0.855 | – | 0.522
S. aureus DSM 20231, partner 4 µg/mL | 0.844 | – | –
S. pneumoniae D39V, partner 1 µg/mL | 0.941 | 0.905 | 0.78
S. pneumoniae D39V, partner 2 µg/mL | 0.946 | 0.926 | 0.811
S. pneumoniae D39V, partner 4 µg/mL | 0.909 | 0.872 | 0.842

CN(C)[C@@H]1C(O)=C(C(N)=O)C(=O)[C@@]2(O)C(O)=C3C(=O)c4c(O)ccc(Cl)c4[C@@](C)(O)[C@H]3C[C@@H]12 [Chlortetracycline] + CO/N=C(\C(=O)N[C@@H]1C(=O)N2C(C(=O)[O-])=C(C[N+]3(C)CCCC3)CS[C@H]12)c1csc(N)n1 [Cefepime]
S. aureus DSM 20231, first compound 0.006 µg/mL, one replicate
Conditions | fitness
partner 0.125 µg/mL | 0.792
partner 0.25 µg/mL | 0.774
partner 0.5 µg/mL | 0.722

Conditions | fitness
S. aureus DSM 20231, first compound 0.012 µg/mL, partner 0.125 µg/mL | 0.63
S. aureus DSM 20231, first compound 0.012 µg/mL, partner 0.25 µg/mL | 0.617
S. aureus DSM 20231, first compound 0.012 µg/mL, partner 0.5 µg/mL | 0.636
S. aureus DSM 20231, first compound 0.024 µg/mL, partner 0.125 µg/mL | 0.388
S. aureus DSM 20231, first compound 0.048 µg/mL, partner 0.125 µg/mL | 0.274
S. aureus DSM 20231, first compound 0.048 µg/mL, partner 0.25 µg/mL | 0.304
S. aureus DSM 20231, first compound 0.048 µg/mL, partner 0.5 µg/mL | 0.274
S. pneumoniae D39V, first compound 0.012 µg/mL, partner 0.007 µg/mL | 0.964
S. pneumoniae D39V, first compound 0.012 µg/mL, partner 0.014 µg/mL | 0.949
S. pneumoniae D39V, first compound 0.012 µg/mL, partner 0.028 µg/mL | 0.836
S. pneumoniae D39V, first compound 0.024 µg/mL, partner 0.007 µg/mL | 0.936
S. pneumoniae D39V, first compound 0.024 µg/mL, partner 0.014 µg/mL | 0.86
S. pneumoniae D39V, first compound 0.024 µg/mL, partner 0.028 µg/mL | 0.811
S. pneumoniae D39V, first compound 0.048 µg/mL, partner 0.007 µg/mL | 0.659
S. pneumoniae D39V, first compound 0.048 µg/mL, partner 0.014 µg/mL | 0.661
S. pneumoniae D39V, first compound 0.048 µg/mL, partner 0.028 µg/mL | 0.693
S. pneumoniae D39V, first compound 0.375 µg/mL, partner 0.0078 µg/mL | 0.0772
S. pneumoniae D39V, first compound 0.375 µg/mL, partner 0.0155 µg/mL | 0.049
S. pneumoniae D39V, first compound 0.375 µg/mL, partner 0.031 µg/mL | 0.0797
S. pneumoniae D39V, first compound 0.75 µg/mL, partner 0.0078 µg/mL | 0.0925
S. pneumoniae D39V, first compound 0.75 µg/mL, partner 0.0155 µg/mL | 0.0687
S. pneumoniae D39V, first compound 0.75 µg/mL, partner 0.031 µg/mL | 0.0749
S. pneumoniae D39V, first compound 1.5 µg/mL, partner 0.0078 µg/mL | 0.0695
S. pneumoniae D39V, first compound 1.5 µg/mL, partner 0.0155 µg/mL | 0.0769
S. pneumoniae D39V, first compound 1.5 µg/mL, partner 0.031 µg/mL | 0.0751

CC(=O)Oc1ccccc1C(=O)O [Acetylsalicylic acid] + CN1C2=CC=CC=C2N=C3C1=CC=CC3=O [Pyocyanin]
fitness
Conditions | first compound 250 µg/mL | first compound 500 µg/mL | first compound 1000 µg/mL
S. aureus DSM 20231, partner 1.25 µg/mL | 0.826 | 0.679 | 0.525
S. aureus DSM 20231, partner 2.5 µg/mL | 0.751 | 0.607 | 0.437
S. aureus DSM 20231, partner 5 µg/mL | 0.611 | 0.551 | 0.268
S. pneumoniae D39V, partner 0.325 µg/mL | ≥ 1 | 0.995 | 0.917
S. pneumoniae D39V, partner 0.65 µg/mL | 1 | 0.98 | 0.681
S. pneumoniae D39V, partner 1.3 µg/mL | 0.863 | 0.722 | 0.467
